Measurements reported in ChEMBL document CHEMBL4477199, “Design and synthesis of novel bicalutamide and enzalutamide derivatives as antiproliferative agents for the treatment of prostate cancer” (Eur J Med Chem, 2016).
pIC50: −log10 of the molar value.

What was measured:
DU-145 = experiment: Antiproliferative activity against human DU145 cells after 96 hrs by propidium iodide staining based fluorescence 2D monolayer assay; assay type: functional, cell-based; conditions: DU-145, 96 h
LNCaP = experiment: Antiproliferative activity against human LNCAP cells after 96 hrs by propidium iodide staining based fluorescence 2D monolayer assay; assay type: functional, cell-based
CWR22R = experiment: Antiproliferative activity against human 22Rv1 cells after 96 hrs by propidium iodide staining based fluorescence 2D monolayer assay; assay type: functional, cell-based; conditions: 22Rv1, 96 h
[1] = 96 h
Description: Solubility in RPMI1640 culture medium at <30 uM incubated for 4 days by microscopic analysis

[2] = 33000 µM
Description: Solubility in 100% DMSO at 33 mM at -20 degC

VCaP = experiment: Antiproliferative activity against human VCaP cells after 96 hrs by propidium iodide staining based fluorescence 2D monolayer assay; assay type: functional, cell-based

SMILES	pIC50 (DU-145)	pIC50 (LNCaP)	pIC50 (CWR22R)	solubility [1]	solubility [2]	pIC50 (VCaP)
CC(O)(CSc1ccc(C(F)(F)F)cc1)C(=O)Nc1ccc([N+](=O)[O-])cc1C(F)(F)F (stereo not given)	4.72	5.06	4.83	Soluble	Soluble	4.77
CC(O)(COc1cccc(C(F)(F)F)c1)C(=O)Nc1ccc(C#N)c(C(F)(F)F)c1 (stereo not given)	4.96	5.08	5.23	Soluble	Soluble	5.04
CC(O)(CSc1ccc(C(F)(F)F)cn1)C(=O)Nc1ccc([N+](=O)[O-])cc1C(F)(F)F (stereo not given)	4.70	4.96	4.87	Soluble	Soluble	4.76
CC(O)(CSc1ccccc1C(F)(F)F)C(=O)Nc1ccc(C#N)cc1C(F)(F)F (stereo not given)	4.73	4.97	4.93	Soluble	Soluble	4.74
CC(O)(CSc1cccc(C(F)(F)F)c1)C(=O)Nc1ccc([N+](=O)[O-])cc1C(F)(F)F (stereo not given)	4.84	5.00	4.90	Soluble	Soluble	4.78
C[C@](O)(CSc1ccccc1C(F)(F)F)C(=O)Nc1ccc(C#N)c(C(F)(F)F)c1	5.11	5.10	5.28			5.53
CC(O)(CSc1cccc(C(F)(F)F)c1)C(=O)Nc1ccc(C#N)cc1C(F)(F)F (stereo not given)	4.68	4.95	4.82	Soluble	Soluble	4.63
CC(O)(CS(=O)(=O)c1ccc(OC(F)(F)F)cc1)C(=O)Nc1ccc(C#N)c(C(F)(F)F)c1 (stereo not given)	4.56	4.50	4.77	Soluble	Soluble	4.48
CC(O)(CSc1ccc(F)cc1)C(=O)Nc1ccc(C#N)cc1C(F)(F)F (stereo not given)	4.36	4.58	4.52	Soluble	Soluble	4.34
CC(O)(CS(=O)(=O)c1ccc(C(F)(F)F)cc1)C(=O)Nc1ccc(C#N)cc1C(F)(F)F (stereo not given)	4.35	4.48	4.55	Soluble	Soluble	4.36
CC(O)(COc1ccc(OC(F)(F)F)cc1)C(=O)Nc1ccc(C#N)cc1C(F)(F)F (stereo not given)	4.46	4.56	4.55	Soluble	Soluble	4.65
CC(O)(CSc1ccc(OC(F)(F)F)cc1)C(=O)Nc1ccc([N+](=O)[O-])cc1C(F)(F)F (stereo not given)	4.16	4.00	4.21	Soluble	Soluble	4.00
CC(O)(COc1ccc(OC(F)(F)F)cc1)C(=O)Nc1ccc(C#N)c(C(F)(F)F)c1 (stereo not given)	4.74	4.87	4.76	Soluble	Soluble	4.75
CC(O)(CS(=O)(=O)c1cccc(OC(F)(F)F)c1)C(=O)Nc1ccc([N+](=O)[O-])cc1C(F)(F)F (stereo not given)	4.56	4.91	4.75	Soluble	Soluble	4.69
CC(O)(COc1cccc(OC(F)(F)F)c1)C(=O)Nc1ccc(C(F)(F)F)cc1 (stereo not given)	4.53	5.67	4.81	Soluble	Soluble	5.37
CC(O)(CSc1ccc(C(F)(F)F)cn1)C(=O)Nc1ccc(C#N)c(C(F)(F)F)c1 (stereo not given)	4.08	4.09	4.27	Soluble	Soluble	4.05
CC(O)(CSc1cc(C(F)(F)F)ccn1)C(=O)Nc1ccc([N+](=O)[O-])cc1C(F)(F)F (stereo not given)	4.85	5.26	4.94	Soluble	Soluble	4.76
CC(O)(CS(=O)(=O)c1ccccc1C(F)(F)F)C(=O)Nc1ccc(C#N)c(C(F)(F)F)c1 (stereo not given)	4.26	4.37	4.33	Soluble	Soluble	4.23
CC(O)(COc1cccc(C(F)(F)F)c1)C(=O)Nc1ccc([N+](=O)[O-])c(C(F)(F)F)c1 (stereo not given)	5.00	5.00	5.07	Soluble	Soluble	4.99
CC(O)(COc1ccc(F)c(F)c1)C(=O)Nc1ccc(C#N)c(C(F)(F)F)c1 (stereo not given)	4.34	4.72	4.45	Soluble	Soluble	4.59

SMILES	pIC50 (DU-145)	pIC50 (LNCaP)	pIC50 (CWR22R)	solubility [1]	solubility [2]	pIC50 (VCaP)
CC(O)(CSc1ccc(OC(F)(F)F)cc1)C(=O)Nc1ccc(C#N)c(C(F)(F)F)c1 (stereo not given)	4.19	4.37	4.33	Soluble	Soluble	4.39
CC(O)(COc1ccc(F)c(F)c1)C(=O)Nc1ccc(C#N)cc1C(F)(F)F (stereo not given)	4.38	4.46	4.43	Soluble	Soluble	4.33
CC(O)(CSc1cccc(OC(F)(F)F)c1)C(=O)Nc1ccc(C(F)(F)F)cc1 (stereo not given)	4.56	4.86	4.80	Soluble	Soluble	4.73
CC(O)(COc1ccc(F)cc1F)C(=O)Nc1ccc(C#N)cc1C(F)(F)F (stereo not given)	4.00	4.51	4.22	Soluble	Soluble	4.30
CC(O)(CSc1ccccc1C(F)(F)F)C(=O)Nc1ccc(C(F)(F)F)cc1 (stereo not given)	5.06	5.14	5.28	Soluble	Soluble	5.23
CC(O)(COc1ccccc1OC(F)(F)F)C(=O)Nc1ccc(C#N)cc1C(F)(F)F (stereo not given)	4.57	4.47	4.78	Soluble	Soluble	4.36
CC(O)(COc1ccc(C(F)(F)F)cn1)C(=O)Nc1ccc([N+](=O)[O-])c(C(F)(F)F)c1 (stereo not given)	4.00	4.44	4.45	Soluble	Soluble	4.00
C[C@](O)(CS(=O)(=O)c1ccc(F)cc1)C(=O)Nc1ccc(C#N)cc1C(F)(F)F	4.00	4.07	4.00	Soluble	Soluble	4.00
CC(O)(COc1ccccc1C(F)(F)F)C(=O)Nc1ccc(C(F)(F)F)cc1 (stereo not given)	4.58	5.16	5.19	Soluble	Soluble	4.94
CC(O)(COc1ccc(C(F)(F)F)cc1)C(=O)Nc1ccc([N+](=O)[O-])c(C(F)(F)F)c1 (stereo not given)	4.59	4.76	4.79	Soluble	Soluble	4.96
CC(O)(COc1cccc(C(F)(F)F)c1)C(=O)Nc1ccc([N+](=O)[O-])cc1C(F)(F)F (stereo not given)	4.74	4.89	4.82	Soluble	Soluble	4.71
CC(O)(CSc1ccc(F)cc1)C(=O)Nc1ccc([N+](=O)[O-])cc1C(F)(F)F (stereo not given)	4.58	4.92	4.75	Soluble	Soluble	4.68
CC(O)(CS(=O)(=O)c1ccc(F)cc1F)C(=O)Nc1ccc([N+](=O)[O-])cc1C(F)(F)F (stereo not given)	4.33	4.75	4.52	Soluble	Soluble	4.24
CC(O)(CSc1cccc(C(F)(F)F)c1)C(=O)Nc1ccc(C(F)(F)F)cc1 (stereo not given)	4.51	4.65	4.73	Soluble	Soluble	4.71
CC(O)(COc1ccc(C#N)c(F)c1)C(=O)Nc1ccc(C#N)cc1C(F)(F)F (stereo not given)	4.16	4.11	4.34	Soluble	Soluble	4.11
CC(O)(CS(=O)(=O)c1ccc(F)cc1)C(=O)Nc1ccc(C#N)cc1C(F)(F)F (stereo not given)	4.00	4.04	4.11	Soluble	Soluble	4.19
CC(O)(CS(=O)(=O)c1ccccc1C(F)(F)F)C(=O)Nc1ccc(C#N)cc1C(F)(F)F (stereo not given)	4.00	4.13	4.01	Soluble	Soluble	4.00
C[C@](O)(CSc1ccc(OC(F)(F)F)cc1)C(=O)Nc1ccc(C#N)c(C(F)(F)F)c1	4.53	4.70	4.54	Soluble	Soluble	4.76
CC(O)(CSc1ccc(C(F)(F)F)cc1)C(=O)Nc1ccc(C#N)cc1C(F)(F)F (stereo not given)				Soluble	Soluble	
CC(O)(CSc1ccc(C(F)(F)F)cc1)C(=O)Nc1ccc(C#N)c(C(F)(F)F)c1 (stereo not given)				Soluble	Soluble	
